In patent publication US7674801B2 (AstraZeneca AB, priority 2006, dated 2010):

target: S. aureus (SAU) GyrB ATPase (Staphylococcus aureus, UniProt P0A0K8); assay: S. aureus GyrB ATPase inhibition, ammonium molybdate/malachite green phosphate detection assay; format: biochemical; details: compound concentration 12.5 μM; 12.5 µM
Experimental: Compounds were tested for inhibition of GyrB ATPase activity using an ammonium molybdate/malachite green-based phosphate detection assay (Lanzetta, P. A., L. J. Alvarez, P. S. Reinach, and O. A. Candia, 1979, 100: 95-97). Assays were performed in multiwell plates in 100 μl reactions containing: 50 mM Hepes buffer pH 7.5, 75 mM ammonium acetate, 8.0 mM magnesium chloride, 1.0 mM ethylenediaminetetraacetic acid, 5% glycerol, 2 mM 1,4-Dithio-DL-threitol, 400 nM bovine serum albumin, 5 μg/ml sheared salmon sperm DNA, 1.25 nM E. coli GyrA, 1.25 nM S. aureus GyrB, 500 μM ATP, and compound in dimethylsulfoxide. Reactions were quenched with 150 μl of ammonium molybdate/malachite green detection reagent containing 1.2 mM malachite green hydrochloride, 8.5 mM ammonium molybdate tetrahydrate, and 1 M hydrochloric acid. Plates were read in an absorbance plate reader at 650 nm and percent inhibition values were calculated using dimethylsulfoxide (2%)-containing reactions as 0% inhibition and novobiocin-containing (2 μM) reactions as 100% inhibition controls. Compound potency was based on IC50 measurements determined from reactions performed in the presence of 10 different compound concentrations.

Sequence of S. aureus (SAU) GyrB ATPase (P0A0K8 whole entry): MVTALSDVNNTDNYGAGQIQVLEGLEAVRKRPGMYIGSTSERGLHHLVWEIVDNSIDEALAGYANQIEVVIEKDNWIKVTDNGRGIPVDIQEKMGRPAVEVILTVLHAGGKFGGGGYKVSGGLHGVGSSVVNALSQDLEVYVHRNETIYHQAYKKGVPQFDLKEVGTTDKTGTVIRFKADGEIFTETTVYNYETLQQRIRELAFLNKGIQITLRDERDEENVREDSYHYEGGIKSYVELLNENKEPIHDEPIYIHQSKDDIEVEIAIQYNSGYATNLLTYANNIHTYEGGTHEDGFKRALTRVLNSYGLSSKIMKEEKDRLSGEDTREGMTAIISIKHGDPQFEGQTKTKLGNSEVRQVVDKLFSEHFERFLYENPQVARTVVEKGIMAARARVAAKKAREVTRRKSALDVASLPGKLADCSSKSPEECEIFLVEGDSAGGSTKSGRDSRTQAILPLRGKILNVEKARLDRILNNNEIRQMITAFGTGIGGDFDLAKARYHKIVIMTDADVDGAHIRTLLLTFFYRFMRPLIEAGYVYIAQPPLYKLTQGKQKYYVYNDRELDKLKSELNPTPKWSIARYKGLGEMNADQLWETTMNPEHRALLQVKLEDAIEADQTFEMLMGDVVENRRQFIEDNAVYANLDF
Sequence of S. aureus (SAU) GyrB ATPase (P0AES4 whole entry, further chain): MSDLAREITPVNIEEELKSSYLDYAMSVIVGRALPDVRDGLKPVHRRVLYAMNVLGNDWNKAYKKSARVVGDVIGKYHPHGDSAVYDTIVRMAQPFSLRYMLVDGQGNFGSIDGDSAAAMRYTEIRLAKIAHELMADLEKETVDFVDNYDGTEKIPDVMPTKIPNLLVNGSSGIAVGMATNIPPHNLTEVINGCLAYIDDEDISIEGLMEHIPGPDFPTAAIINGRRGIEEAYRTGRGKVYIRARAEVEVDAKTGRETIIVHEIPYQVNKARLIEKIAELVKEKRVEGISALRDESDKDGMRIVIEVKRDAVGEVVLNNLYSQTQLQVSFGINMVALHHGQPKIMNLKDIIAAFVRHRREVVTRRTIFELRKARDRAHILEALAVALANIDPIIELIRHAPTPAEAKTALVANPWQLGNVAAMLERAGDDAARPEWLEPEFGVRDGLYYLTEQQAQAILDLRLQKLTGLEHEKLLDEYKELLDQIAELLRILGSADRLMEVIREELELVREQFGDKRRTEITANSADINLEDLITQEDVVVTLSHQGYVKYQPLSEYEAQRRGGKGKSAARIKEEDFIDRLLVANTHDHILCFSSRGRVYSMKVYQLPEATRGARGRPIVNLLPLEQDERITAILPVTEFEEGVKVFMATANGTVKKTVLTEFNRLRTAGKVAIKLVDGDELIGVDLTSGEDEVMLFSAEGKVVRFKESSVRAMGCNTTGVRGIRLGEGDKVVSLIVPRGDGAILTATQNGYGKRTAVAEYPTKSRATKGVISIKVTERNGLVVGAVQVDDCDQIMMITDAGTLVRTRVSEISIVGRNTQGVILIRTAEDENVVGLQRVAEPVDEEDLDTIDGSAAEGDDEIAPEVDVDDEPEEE

SMILES	S. aureus (SAU) GyrB ATPase % Inhibition
CCNC(=O)Nc1ccc(-c2nc(-c3ncnn3C)c(C(=O)O)s2)cn1 [Example 90, 2-(6-{[(Ethylamino)carbonyl]amino}pyridin-3-yl)-4-(1-methyl-1H-1,2,4-triazol-5-yl)-1,3-thiazole-5-carboxylic acid]	19.71%

same assay, conditions: read-out: S. aureus (SAU) GyrB ATPase % Inhibition, compound concentration 12.5 μM

SMILES	inhibition at 12.5 µM
CCNC(=O)Nc1ccc(-c2nc(C(=O)N(C)C)c(C(=O)N(C)C)s2)cn1 [Example 57, 2-[6-(3-Ethyl-ureido)-pyridin-3-yl]-thiazole-4,5-dicarboxylic acid bis-dimethylamide]	80.1%
CCNC(=O)Nc1ccc(-c2nc(C(=O)N(C)C)c(C(=O)NC3CCCC3)s2)cn1 [Example 58, 2-[6-(3-Ethyl-ureido)-pyridin-3-yl]-thiazole-4,5-dicarboxylic acid 5-yclopentylamide 4-dimethylamide]	89.3%
CCNC(=O)Nc1ccc(-c2nc(C(=O)NCC)c(C(=O)N(C)C)s2)cn1 [Example 61, 2-[6-(3-Ethyl-ureido)-pyridin-3-yl]-thiazole-4,5-dicarboxylic acid 5-dimethylamide 4-ethylamide]	92.8%
CCCNC(=O)c1nc(-c2ccc(NC(=O)NCC)nc2)sc1C(=O)N(C)C [Example 64, 2-[6-(3-ethyl-ureido)-pyridin-3-yl]-thiazole-4,5-dicarboxylic acid 5-dimethylamide 4-propylamide]	92.6%
CCNC(=O)Nc1ccc(-c2nc(C(=O)NC(C)C)c(C(=O)N(C)C)s2)cn1 [Example 67]	92.5%
CCNC(=O)Nc1cc(-c2cncc(F)c2)c(-c2cncc(C(=O)O)c2)cn1 [Example 69, 6′-{[(Ethylamino)carbonyl]amino}-5″-fluoro-3,3′:4′,3″-terpyridine-5-carboxylic acid]	88.5%
CCNC(=O)Nc1cc(-c2cncc(F)c2)c(-c2cncc(C(=O)NC)c2)cn1 [Example 70, 6′-{[(ethylamino)carbonyl]amino}-5″-fluoro-N-methyl-3,3′:4′,3″-terpyridine-5-carboxamide]	88.2%
CCNC(=O)Nc1ccc(-c2nc(-c3nccn3CCOC)c(C(=O)OC)s2)cn1 [Example 71, Methyl 2-(6-{[(ethylamino)carbonyl]amino}pyridin-3-yl)-4-[1-(2-methoxyethyl)-1H-imidazol-2-yl]-1,3-thiazole-5-carboxylate]	93%
CCNC(=O)Nc1ccc(-c2nc(-c3ncnn3C)c(C(=O)OC)s2)cn1 [Example 72, Methyl 2-(6-{[(ethylamino)carbonyl]amino}pyridin-3-yl)-4-(1-methyl-1H-1,2,4-triazol-5-yl)-1,3-thiazole-5-carboxylate]	80.3%
CCNC(=O)Nc1ccc(-c2nc(C(=O)N[C@@H](C)COC)c(C(=O)OCC)s2)cn1 [Example 74, Ethyl 2-(6-{[(ethylamino)carbonyl]amino}pyridin-3-yl)-4-({[(1S)-2-methoxy-1-methylethyl]amino}carbonyl)-1,3-thiazole-5-carboxylate]	0.95%
CCNC(=O)Nc1ccc(-c2nc(-c3nccn3C)c(C(=O)OC)s2)cn1 [Example 75, Methyl 2-(6-{[(ethylamino)carbonyl]amino}pyridin-3-yl)-4-(1-methyl-1H-imidazol-2-yl)-1,3-thiazole-5-carboxylate]	93.5%
CCNC(=O)Nc1ccc(-c2nc(C(=O)NC(C)(C)C)c(C(=O)OCC)s2)cn1 [Example 76, Ethyl 4-[(tert-butylamino)carbonyl]-2-(6-{[(ethylamino)carbonyl]amino}pyridin-3-yl)-1,3-thiazole-5-carboxylate]	88.2%
CCNC(=O)Nc1cc(-c2ccccc2)c(-c2cncc(C(=O)OCC)c2)cn1 [Example 77, Ethyl 6′-{[(ethylamino)carbonyl]amino}-4′-phenyl-3,3′-bipyridine-5-carboxylate]	101%
CCNC(=O)Nc1cc(-c2nc(C(F)(F)F)cs2)c(-c2cncc(C(=O)OCC)c2)cn1 [Example 83, Ethyl 6′-{[(ethylamino)carbonyl]amino}-4′-[4-(trifluoromethyl)-1,3-thiazol-2-yl]-3,3′-bipyridine-5-carboxylate]	86.9%
CCNC(=O)Nc1cc(-c2cccnc2)c(-c2cncc(C(=O)OCC)c2)cn1 [Example 85, Ethyl 6′-{[(ethylamino)carbonyl]amino}-3,3′:4′,3″-terpyridine-5-carboxylate]	94.9%
CCNC(=O)Nc1cc(-c2ccc(F)nc2)c(-c2cncc(C(=O)OCC)c2)cn1 [Example 86, Ethyl 6′-{[(ethylamino)carbonyl]amino}-6″-fluoro-3,3′:4′,3″-terpyridine-5-carboxylate]	99.9%
CCNC(=O)Nc1ccc(-c2nc(-c3nccn3CCOC)c(C(=O)O)s2)cn1 [Example 89, 2-(6-{[(ethylamino)carbonyl]amino}pyridin-3-yl)-4-[1-(2-methoxyethyl)-1H-imidazol-2-yl]-1,3-thiazole-5-carboxylic acid]	86.1%

SMILES	inhibition at 12.5 µM
CCNC(=O)Nc1ccc(-c2nc(C(=O)NCCOC)c(C(=O)O)s2)cn1 [Example 91, 2-(6-{[(Ethylamino)carbonyl]amino}pyridin-3-yl)-4-{[(2-methoxyethyl)amino]carbonyl}-1,3-thiazole-5-carboxylic acid]	101%
CCNC(=O)Nc1ccc(-c2nc(C(=O)N[C@@H](C)COC)c(C(=O)O)s2)cn1 [Example 92, 2-(6-{[(ethylamino)carbonyl]amino}pyridin-3-yl)-4-({[(1S)-2-methoxy-1-methylethyl]amino}carbonyl)-1,3-thiazole-5-carboxylic acid]	101%
CCNC(=O)Nc1ccc(-c2nc(-c3nccn3C)c(C(=O)O)s2)cn1 [Example 93, 2-(6-{[(Ethylamino)carbonyl]amino}pyridin-3-yl)-4-(1-methyl-1H-imidazol-2-yl)-1,3-thiazole-5-carboxylic acid]	99.1%
CCNC(=O)Nc1ccc(-c2nc(C(=O)NC(C)(C)C)c(C(=O)O)s2)cn1 [Example 94, 4-[(tert-Butylamino)carbonyl]-2-(6-{[(ethylamino)carbonyl]amino}pyridin-3-yl)-1,3-thiazole-5-carboxylic acid]	98.9%
CCNC(=O)Nc1cc(-c2ccccc2)c(-c2cncc(C(=O)O)c2)cn1 [Example 95, 6′-{[(Ethylamino)carbonyl]amino}-4′-phenyl-3,3′-bipyridine-5-carboxylic acid]	100%
CCNC(=O)Nc1cc(-c2ccccc2)c(-c2cccc(C(=O)O)c2)cn1 [Example 96, 3-(6-{[(Ethylamino)carbonyl]amino}-4-phenylpyridin-3-yl)benzoic acid]	95.4%
CCNC(=O)Nc1cc(-c2ccccc2)c(-c2ncc(C(=O)O)s2)cn1 [Example 97, 2-(6-{[(Ethylamino)carbonyl]amino}-4-phenylpyridin-3-yl)-1,3-thiazole-5-carboxylic acid]	101%
CCCCNC(=O)c1nc(-c2cnc(NC(=O)NCC)cc2-c2ccccc2)sc1C(=O)O [Example 98, 4-[(Butylamino)carbonyl]-2-(6-{[(ethylamino)carbonyl]amino}-4-phenylpyridin-3-yl)-1,3-thiazole-5-carboxylic acid]	99.3%
CCNC(=O)Nc1cc(-c2nc(CC)cs2)c(-c2cncc(C(=O)O)c2)cn1 [Example 99, 6′-{[(Ethylamino)carbonyl]amino}-4′-(4-ethyl-1,3-thiazol-2-yl)-3,3′-bipyridine-5-carboxylic acid]	102%
CCNC(=O)Nc1cc(-c2nc(CC)cs2)c(-c2cccc(C(=O)O)c2)cn1 [Example 100, 3-[6-{[(Ethylamino)carbonyl]amino}-4-(4-ethyl-1,3-thiazol-2-yl)pyridin-3-yl]benzoic acid]	99.7%
CCNC(=O)Nc1cc(-c2nc(C(F)(F)F)cs2)c(-c2cncc(C(=O)O)c2)cn1 [Example 101, 6′-{[(Ethylamino)carbonyl]amino}-4′-[4-(trifluoromethyl)-1,3-thiazol-2-yl]-3,3′-bipyridine-5-carboxylic acid]	98.3%
CCNC(=O)Nc1cc(-c2nc(C(F)(F)F)cs2)c(-c2ncc(C(=O)O)s2)cn1 [Example 102, 2-{6-{[(Ethylamino)carbonyl]amino}-4-[4-(trifluoromethyl)-1,3-thiazol-2-yl]pyridin-3-yl}-1,3-thiazole-5-carboxylic acid]	98.2%
CCNC(=O)Nc1cc(-c2cccnc2)c(-c2cncc(C(=O)O)c2)cn1 [Example 103, 6′-{[(Ethylamino)carbonyl]amino}-3,3′:4′,3″-terpyridine-5-carboxylic acid]	96%
CCNC(=O)Nc1cc(-c2ccc(F)nc2)c(-c2cncc(C(=O)O)c2)cn1 [Example 104]	89.9%
CC(C)NC(=O)Nc1cc(-c2nc(C(F)(F)F)cs2)c(-c2cncc(C(=O)O)c2)cn1 [Example 105, 6′-{[(Isopropylamino)arbonyl]amino}-4′-[4-(trifluoromethyl)-1,3-thiazol-2-yl]-3,3′-bipyridine-5-carboxylic acid]	94.8%
CCC(C)NC(=O)Nc1cc(-c2nc(C(F)(F)F)cs2)c(-c2cncc(C(=O)O)c2)cn1 (stereo not shown) [Example 106, 6′-{[(Sec-butylamino)carbonyl]amino}-4′-[4-(trifluoromethyl)-1,3-thiazol-2-yl]-3,3′-bipyridine-5-carboxylic acid]	93.1%
